Data: patent US4444758A, “Nonapeptide for treating addictive drug withdrawal conditions” (priority 1981, dated 1984)
Where no end group is shown, it is not given here.

What was measured:
morphine-dependent mouse = test: Inhibition of the naloxone-triggered withdrawal leaps of the morphine-dependent mouse; format: in vivo; settings: 30 mg . kg^-1 s.c., positive control
Experimental: In order to produce the dependence a compressed tablet, which contained 75 mg of morphine (base) and which progressively dissolved with continuous liberation of the morphine, was implanted under the dorsal skin of male mice (weight about 22 g). On the third day after the implantation the morphine antagonist naloxone in a dosage of 0.1 mg/kg was administered subcutaneously to the animals in order to trigger off the withdrawal leaps.
After the injection, the leaps of each individual animal were counted for 20 minutes. The group median value was calculated from the total leaps of 8 animals, which formed a group. As the positive control the animals of one group received 30 mg/kg of morphine subcutaneously 30 minutes before administration of the antagonist. Two to four groups received 10 ml/kg of physiological sodium chloride solution (negative control) 2 hours before the naloxone administration intravenously. The remaining groups received DSIP in various dosages (0.01, 0.015, 0.03, 0.06 and 0.1 mg/kg, intravenously and 0.03, 0.1 and 0.3 mg/kg, subcutaneously) 2 hours before the naloxone administration. The dosage median values and, respectively, control median values were calculated from all individual values per dosage and, respectively, the positive and negative controls.

rats [1] = settings: rat, in vivo
Experimental: (§1) Toxicological studies were carried out on 12 male and 12 female rats as well as on 3 male and 3 female dogs per dosage. For this purpose DSIP was dissolved in physiological sodium chloride solution and administered intravenously daily for 4 weeks in the dosages of 0.6, 1.8 and 6 mg/kg. At an interval of 2 weeks during these studies the hematological, hematochemical and the urine status were determined, and the electrocardiogram was recorded and analyzed
(§2) At the termination of the aforementioned studies all animals were painlessly killed and there followed the autopsy besides the removal of organ samples for histological investigations.

dogs [2] = settings: dog, in vivo
Experimental: as §1, §2

[3] = test system: alcoholic or methadone- or heroin-dependent patients; settings: human, in vivo
Experimental: Of the 25 alcoholic patients 8 were on admission already in delirium tremens to a medium to severe degrees. After the first subjective and objective withdrawal signs manifested themselves the patients received up to 4 intravenous infusions of in each case 0.0214 mg/kg of DSIP daily. For this purpose, the substance was dissolved in physiological sodium chloride solution and infused in the course of 5 minutes.
The duration of treatment amounted to a maximum of 3 days.

rats [4] = test: 4-week intravenous toxicological study in rats
Experimental: as §1, §2

dogs [5] = test: 4-week intravenous toxicological study in dogs
Experimental: as §1, §2

[6] = maximum dosage (6 mg/kg i.v. daily for 4 weeks)

Compound	Leaps/animal (median) (morphine-dependent mouse; 30 minutes before naloxone 0.1 mg/kg s.c., leaps counted for 20 minutes)	% of a negative control (morphine-dependent mouse; 30 minutes before naloxone)	Tolerance of the dosages (side effects) (rats [1])	Local tolerance at the injection sites (rats [1]; iv)	Tolerance of the dosages (side effects) (dogs [2])	Local tolerance at the injection sites (dogs [2]; iv)	Tolerance of DSIP: poor, number of patients [3]	Histological analysis of about 30 organs and of the injection sites (rats [4]; i.v. daily for 4 weeks)	Changes in the electrocardiogram (rats [4]; [6])	Hematological, hematochemical and urine values (rats [4]; [6])	Histological analysis of about 30 organs and of the injection sites (dogs [5]; i.v. daily for 4 weeks)	Changes in the electrocardiogram (dogs [5]; [6])	Hematological, hematochemical and urine values (dogs [5]; [6])
CN1CC[C@]23c4c5ccc(O)c4O[C@H]2[C@@H](O)C=C[C@H]3[C@H]1C5 [Morphine, morphine]	43 Leaps/animal	27%	–	–	–	–	–	–	–	–	–	–	–
WAGGDASGE [DSIP, Trp--Ala--Gly--Gly--Asp--Ala--Ser--Gly--Glu]	–	–	tolerated without any side effects	excellent	tolerated without any side effects	excellent	2 patients	not the slightest evidence of damage to organs	no changes in the electrocardiogram	within the physiological limits	not the slightest evidence of damage to organs	no changes in the electrocardiogram	within the physiological limits
